# Assay results as given in paper PMC9090415, “Discovery of small molecule inhibitors of Plasmodium falciparum apicoplast DNA polymerase” (Journal of Enzyme Inhibition and Medicinal Chemistry, 2022).
# Molecular target: P. falciparum apicoplast DNA polymerase (Pf-apPOL) (Plasmodium falciparum, UniProt Q8ILY1)
# Assay: Fluorescence-based high-throughput DNA polymerase assay (molecular beacon), primary screen and dose-response;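 for % inhibition ApPOL 90': test concentration in µM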;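 for % inhibition apPOL 180': test concentration in µM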
# Type: biochemical
# Settings: for DNA Pol: 90 min, 10 µM
# In short: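 Single-point screening used 10 µM compound with 20 nM polymerase, 20 nM hairpin substrate and 6 µM dNTPs for 90 min at 25 °C. Confirmatory titrations (2.5–80 µM) followed fluorescence at three times, and IC50 was derived from a fit including a cooperativity term n.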
# P. falciparum apicoplast DNA polymerase (Pf-apPOL), sequence (Q8ILY1 entry or part of it): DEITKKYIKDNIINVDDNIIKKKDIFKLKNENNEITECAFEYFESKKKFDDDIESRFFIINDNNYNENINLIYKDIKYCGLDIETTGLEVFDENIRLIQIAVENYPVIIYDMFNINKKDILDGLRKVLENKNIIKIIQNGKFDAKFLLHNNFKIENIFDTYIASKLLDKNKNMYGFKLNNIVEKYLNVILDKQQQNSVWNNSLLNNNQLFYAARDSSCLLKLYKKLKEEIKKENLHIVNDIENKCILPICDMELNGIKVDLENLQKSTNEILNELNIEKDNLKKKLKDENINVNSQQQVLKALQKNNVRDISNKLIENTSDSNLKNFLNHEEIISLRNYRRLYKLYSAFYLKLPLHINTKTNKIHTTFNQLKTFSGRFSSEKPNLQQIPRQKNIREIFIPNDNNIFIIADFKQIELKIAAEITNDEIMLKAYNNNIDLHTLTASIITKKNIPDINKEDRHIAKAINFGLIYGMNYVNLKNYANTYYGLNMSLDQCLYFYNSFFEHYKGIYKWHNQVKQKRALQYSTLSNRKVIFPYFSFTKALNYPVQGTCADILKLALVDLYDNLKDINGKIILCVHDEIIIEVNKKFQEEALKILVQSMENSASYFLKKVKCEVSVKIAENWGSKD
compound,measurement,setting,value
Cc1nc(/N=N/c2ccc(C(=O)[O-])cc2)c(COP(=O)([O-])[O-])c(C=O)c1O.[Na+].[Na+].[Na+] [KU0261395],DNA Pol,'DNA Pol' of the 186 hits list (primary screen value),94
same,DNA Pol,DNA Pol (primary screen value),94
same,% inhibition Apo pol 10',"DRC-1, concentration 2.5",68.7077%
same,% inhibition Apo pol 10',"DRC-1, concentration 5",75.1682%
same,% inhibition Apo pol 10',"DRC-1, concentration 10",82.6072%
same,% inhibition Apo pol 10',"DRC-1, concentration 20",83.4638%
same,% inhibition Apo pol 10',"DRC-1, concentration 40",87.7541%
same,% inhibition Apo pol 10',"DRC-1, concentration 80",88.013%
same,% inhibition Apol 90',"DRC-1, concentration 2.5",38.1069%
same,% inhibition Apol 90',"DRC-1, concentration 5",43.9893%
same,% inhibition Apol 90',"DRC-1, concentration 10",54.4878%
same,% inhibition Apol 90',"DRC-1, concentration 20",58.7781%
same,% inhibition Apol 90',"DRC-1, concentration 40",68.7531%
same,% inhibition Apol 90',"DRC-1, concentration 80",75.4152%
same,% inhibition apPOL 180',"DRC-1, concentration 2.5",26.3863%
same,% inhibition apPOL 180',"DRC-1, concentration 5",31.3621%
same,% inhibition apPOL 180',"DRC-1, concentration 10",42.4654%
same,% inhibition apPOL 180',"DRC-1, concentration 20",47.0791%
same,% inhibition apPOL 180',"DRC-1, concentration 40",59.2191%
same,% inhibition apPOL 180',"DRC-1, concentration 80",68.3493%
same,% inhibition Apo pol 5',"DRC-2, concentration 2.5",42%
same,% inhibition Apo pol 5',"DRC-2, concentration 5",44%
same,% inhibition Apo pol 5',"DRC-2, concentration 10",53%
same,% inhibition Apo pol 5',"DRC-2, concentration 20",53%
same,% inhibition Apo pol 5',"DRC-2, concentration 40",54%
same,% inhibition Apo pol 5',"DRC-2, concentration 80",55%
same,% inhibition Apol 40',"DRC-2, concentration 2.5",33%
same,% inhibition Apol 40',"DRC-2, concentration 5",40%
same,% inhibition Apol 40',"DRC-2, concentration 10",51%
same,% inhibition Apol 40',"DRC-2, concentration 20",56%
same,% inhibition Apol 40',"DRC-2, concentration 40",61%
same,% inhibition Apol 40',"DRC-2, concentration 80",66%
same,% inhibition ApPOL 90',"DRC-2, concentration 2.5",29%
same,% inhibition ApPOL 90',"DRC-2, concentration 5",36%
same,% inhibition ApPOL 90',"DRC-2, concentration 10",48%
same,% inhibition ApPOL 90',"DRC-2, concentration 20",53%
same,% inhibition ApPOL 90',"DRC-2, concentration 40",60%
same,% inhibition ApPOL 90',"DRC-2, concentration 80",66%
same,% inhibition apPOL 180',"DRC-2, concentration 2.5",20%
same,% inhibition apPOL 180',"DRC-2, concentration 5",26%
same,% inhibition apPOL 180',"DRC-2, concentration 10",39%
same,% inhibition apPOL 180',"DRC-2, concentration 20",48%
same,% inhibition apPOL 180',"DRC-2, concentration 40",56%
same,% inhibition apPOL 180',"DRC-2, concentration 80",66%
"O=C(O)CCS(=O)(=O)c1ccc(-c2ccc(S(=O)(=O)CCC(=O)O)cc2)cc1 [Molecule 32, OC(=O)CCS(=O)(=O)c1ccc(cc1)c1ccc(cc1)S(=O)(=O)CCC(=O)O]",DNA Pol,"""DNA Pol"" of the 186 hits list (screen value)",40
same,% inhibition Apo pol 10',"DRC-1, concentration 2.5",22.5031%
same,% inhibition Apo pol 10',"DRC-1, concentration 5",45.6696%
same,% inhibition Apo pol 10',"DRC-1, concentration 10",64.9587%
same,% inhibition Apo pol 10',"DRC-1, concentration 20",75.2971%
same,% inhibition Apo pol 10',"DRC-1, concentration 40",82.8671%
same,% inhibition Apo pol 10',"DRC-1, concentration 80",87.3536%
same,% inhibition Apol 90',"DRC-1, concentration 2.5",7.663%
same,% inhibition Apol 90',"DRC-1, concentration 5",20.8234%
same,% inhibition Apol 90',"DRC-1, concentration 10",43.1445%
same,% inhibition Apol 90',"DRC-1, concentration 20",59.5248%
same,% inhibition Apol 90',"DRC-1, concentration 40",71.1176%
same,% inhibition Apol 90',"DRC-1, concentration 80",79.0648%
same,% inhibition apPOL 180',"DRC-1, concentration 2.5",-2.177%
same,% inhibition apPOL 180',"DRC-1, concentration 5",7.502%
same,% inhibition apPOL 180',"DRC-1, concentration 10",30.5046%
same,% inhibition apPOL 180',"DRC-1, concentration 20",50.8957%
same,% inhibition apPOL 180',"DRC-1, concentration 40",64.8259%
same,% inhibition apPOL 180',"DRC-1, concentration 80",73.8924%
same,% inhibition Apo pol 5',"DRC-2, concentration 2.5",15%
same,% inhibition Apo pol 5',"DRC-2, concentration 5",24%
same,% inhibition Apo pol 5',"DRC-2, concentration 10",39%
same,% inhibition Apo pol 5',"DRC-2, concentration 20",43%
same,% inhibition Apo pol 5',"DRC-2, concentration 40",49%
same,% inhibition Apo pol 5',"DRC-2, concentration 80",51%
same,% inhibition Apol 40',"DRC-2, concentration 2.5",10%
same,% inhibition Apol 40',"DRC-2, concentration 5",15%
same,% inhibition Apol 40',"DRC-2, concentration 10",31%
same,% inhibition Apol 40',"DRC-2, concentration 20",40%
same,% inhibition Apol 40',"DRC-2, concentration 40",53%
same,% inhibition Apol 40',"DRC-2, concentration 80",63%
same,% inhibition ApPOL 90',"DRC-2, concentration 2.5",5.57%
same,% inhibition ApPOL 90',"DRC-2, concentration 5",8%
same,% inhibition ApPOL 90',"DRC-2, concentration 10",26%
same,% inhibition ApPOL 90',"DRC-2, concentration 20",37%
same,% inhibition ApPOL 90',"DRC-2, concentration 40",52%
same,% inhibition ApPOL 90',"DRC-2, concentration 80",65%
same,% inhibition apPOL 180',"DRC-2, concentration 2.5",-4.51%
same,% inhibition apPOL 180',"DRC-2, concentration 5",-2.16%
same,% inhibition apPOL 180',"DRC-2, concentration 10",17%
same,% inhibition apPOL 180',"DRC-2, concentration 20",32%
same,% inhibition apPOL 180',"DRC-2, concentration 40",49%
same,% inhibition apPOL 180',"DRC-2, concentration 80",64%
same,DNA Pol,"primary screen value, DNA Pol",40
